# Measured values reported in patent US11986471B2, “Compounds and methods of use” (Tango Therapeutics, Inc., priority 2018, dated 2024).
# Key:
# PRMT5 [1] = biological target: T1, PRMT5 (Homo sapiens, UniProt O14744); test: PRMT5 IC50 assay in the presence of SAM as cofactor; format: biochemical
# T1 construct: purchased Viva (custom protein)
# Outline: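 IC50 against PRMT5 determined with SAM as cofactor, with no cofactor, and with MTA as cofactor. Ki derived as IC50/1.5 for the SAM assay and IC50/13.5 for the MTA assay; SAM Ki to MTA Ki ratio also reported.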
# PRMT5 [2] = biological target: T1, PRMT5; test: PRMT5 IC50 assay with no cofactor; format: biochemical
# Outline: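 Enzyme: human PRMT5. Conditions: plus SAM, plus MTA, or cofactor-free. Output: IC50 (μM); Ki via IC50/1.5 (SAM) or IC50/13.5 (MTA).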
# PRMT5 [3] = biological target: T1, PRMT5; test: PRMT5 IC50 assay in the presence of MTA as cofactor; format: biochemical; details: for IC50: PRMT5, MTA as cofactor
# Outline: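 Each compound is tested on PRMT5 in the presence of SAM, of MTA, and without any cofactor. Ki values are then back-calculated using fixed factors of 1.5 (SAM) and 13.5 (MTA), and the two Ki values are compared as a ratio.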
# HAP1 MTAP-intact = test: SDMA in-cell western assay, HAP1 MTAP-intact cell line; format: cell-based; details: Homo sapiens
# Outline: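 Symmetric dimethylarginine (SDMA) levels were measured by in-cell western in an isogenic HAP1 pair, one expressing endogenous MTAP and one MTAP-null, and IC50 values were derived for each line. Compounds whose IC50 ratio between the lines is 3-fold or more are classed as MTAP-selective.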
# HAP1 MTAP-deleted = test: SDMA in-cell western assay, HAP1 MTAP-deleted cell line; format: cell-based; details: for IC50: Homo sapiens, HAP1 MTAP-deleted cell line; for MTAP Intact/Deleted Ratio: IC50 ratio HAP1 MTAP-intact / HAP1 MTAP-deleted
# Outline: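 Symmetric dimethylarginine (SDMA) levels were measured by in-cell western in MTAP-null HAP1 cells, one half of an MTAP-isogenic pair whose partner line expresses endogenous MTAP. Compound potency is reported as IC50.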
# [4] = ratio between Ki in the presence of SAM and Ki in the presence of MTA
# [5] = ratio between the Ki in the presence of SAM and the Ki in the presence of MTA
# T1 sequence (O14744 whole entry): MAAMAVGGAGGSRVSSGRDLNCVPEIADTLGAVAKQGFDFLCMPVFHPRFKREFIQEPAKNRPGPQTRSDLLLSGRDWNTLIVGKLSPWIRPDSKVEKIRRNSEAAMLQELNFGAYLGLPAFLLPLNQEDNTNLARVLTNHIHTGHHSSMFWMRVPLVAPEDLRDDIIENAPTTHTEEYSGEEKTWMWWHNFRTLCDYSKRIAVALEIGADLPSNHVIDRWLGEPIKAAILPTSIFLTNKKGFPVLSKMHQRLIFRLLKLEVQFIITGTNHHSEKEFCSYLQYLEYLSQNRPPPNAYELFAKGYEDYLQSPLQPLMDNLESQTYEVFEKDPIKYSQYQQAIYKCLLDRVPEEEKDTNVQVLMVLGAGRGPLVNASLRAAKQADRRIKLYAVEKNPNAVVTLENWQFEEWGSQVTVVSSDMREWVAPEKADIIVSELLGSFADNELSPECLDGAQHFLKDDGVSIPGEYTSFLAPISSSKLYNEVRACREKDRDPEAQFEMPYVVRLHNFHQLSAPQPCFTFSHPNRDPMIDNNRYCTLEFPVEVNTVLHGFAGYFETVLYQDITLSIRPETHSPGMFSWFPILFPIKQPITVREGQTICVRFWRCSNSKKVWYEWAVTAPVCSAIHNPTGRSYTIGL
# T1 sequence (Q9BQA1 whole entry partner): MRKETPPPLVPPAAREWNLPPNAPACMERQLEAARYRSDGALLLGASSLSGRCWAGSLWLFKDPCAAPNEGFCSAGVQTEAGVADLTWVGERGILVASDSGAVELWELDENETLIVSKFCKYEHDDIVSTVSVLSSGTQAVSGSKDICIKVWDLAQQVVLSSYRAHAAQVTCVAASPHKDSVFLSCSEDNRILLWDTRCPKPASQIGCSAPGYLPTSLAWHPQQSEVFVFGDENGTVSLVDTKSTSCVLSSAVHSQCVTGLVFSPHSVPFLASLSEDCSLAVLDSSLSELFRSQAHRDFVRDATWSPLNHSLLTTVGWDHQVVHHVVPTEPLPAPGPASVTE
IC50 (PRMT5 [1]) [nM],IC50 (PRMT5 [2]; read-out: No Co-factor IC50) [nM],IC50 (PRMT5 [3]) [nM],IC50 (HAP1 MTAP-intact) [nM],IC50 (HAP1 MTAP-deleted) [nM],IC50 (PRMT5 [2]) [nM],SMILES,SAM/MTA Ratio (PRMT5 [3]; [4]),MTAP Intact/Deleted Ratio (HAP1 MTAP-deleted),SAM/MTA Ratio (PRMT5 [3]; [5])
50 to 500,≥ 5000,50 to 500,≥ 10000,≥ 10000,,"Cc1ncoc1COc1ccc2c(c1Cl)CCN(C[C@@H](O)CNC(=O)c1cccc(NC3CCC3)c1)C2 [Compound 344, N-[(2S)-3-{5-chloro-6-[(4-methyl-1,3-oxazol-5-yl)methoxy]-1,2,3,4-tetrahydroisoquinolin-2-yl}-2-hydroxypropyl]-3-(cyclobutylamino)benzamide]",A (a Ki ratio greater than or equal to 10 fold between the Ki in the presence of SAM and the Ki in the presence of MTA),C* (an IC50 ratio of less than 3 fold between the IC50 in the HAP1 MTAP-intact cell line and the HAP1 MTAP-deleted cell line),
50 to 500,500 to 5000,50 to 500,≥ 10000,1000 to 10000,,"CN1CCN(c2nc(NC3COC3)cc(C(=O)NC[C@H](O)CN3CCc4c(ccc(OCc5cnco5)c4Cl)C3)n2)CC1 [Compound 285, (S)—N-(3-(5-chloro-6-(oxazol-5-ylmethoxy)-3,4-dihydroisoquinolin-2(1H)-yl)-2-hydroxypropyl)-2-(4-methylpiperazin-1-yl)-6-(oxetan-3-ylamino)pyrimidine-4-carboxamide]",A (a Ki ratio greater than or equal to 10 fold between the Ki in the presence of SAM and the Ki in the presence of MTA),C* (an IC50 ratio of less than 3 fold between the IC50 in the HAP1 MTAP-intact cell line and the HAP1 MTAP-deleted cell line),
50 to 500,,50 to 500,≥ 10000,1000 to 10000,500 to 5000,"Cc1ncoc1COc1ccc2c(c1C)CCN(C[C@@H](O)CNC(=O)c1ccc(OC3CCN(Cc4ccncc4)CC3)cc1)C2 [Compound 440, N-[(2S)-2-hydroxy-3-{5-methyl-6-[(4-methyl-1,3-oxazol-5-yl)methoxy]-1,2,3,4-tetrahydroisoquinolin-2-yl}propyl]-4-({1-[(pyridin-4-yl)methyl]piperidin-4-yl}oxy)benzamide]",,B* (an IC50 ratio greater than or equal to 3 fold but lower than 10 fold between the IC50 in the HAP1 MTAP-intact cell line and the HAP1 MTAP-deleted cell line),A (a Ki ratio greater than or equal to 10 fold between the Ki in the presence of SAM and the Ki in the presence of MTA)
50 to 500,500 to 5000,50 to 500,≥ 10000,< 1000,,"Cc1ncoc1COc1ccc2c(c1C)CCN(C[C@@H](O)CNC(=O)c1cc(NC3CCC3)nc(N3CCN(C(=O)C4CC4)CC3)c1)C2 [Compound 411, 2-(cyclobutylamino)-6-(4-cvclopropanecarbonylpiperazin-1-yl)-N-[(2S)-2-hydroxy-3-{5-methyl-6-[(4-methyl-1,3-oxazol-5-yl)methoxy]1,2,3,4-tetrahydroisoquinolin-2-yl}propyl]pyridine-4-carboxamide]",A (a Ki ratio greater than or equal to 10 fold between the Ki in the presence of SAM and the Ki in the presence of MTA),A* (an IC50 ratio greater than or equal to 10 fold between the IC50 in the HAP1 MTAP-intact cell line and the HAP1 MTAP-deleted cell line),
50 to 500,≥ 5000,50 to 500,≥ 10000,≥ 10000,,"O=C(NC[C@H](O)CN1CCc2c(ccc(OCc3cnco3)c2Cl)C1)c1ccnc(NC2CCC(F)CC2)c1 (stereo partly drawn) [Compound 311, (S)—N-(3-(5-chloro-6-(oxazol-5-ylmethoxy)-3N-dihydroisoquinolin-2(1H)-yl)-2-hydroxypropyl)-2-((4-fluorocyclohexyl)amino)isonicotinamide]",A (a Ki ratio greater than or equal to 10 fold between the Ki in the presence of SAM and the Ki in the presence of MTA),C* (an IC50 ratio of less than 3 fold between the IC50 in the HAP1 MTAP-intact cell line and the HAP1 MTAP-deleted cell line),
50 to 500,,50 to 500,≥ 10000,≥ 10000,500 to 5000,"CCC(=O)N1CC(Nc2cc(C(=O)NC[C@H](O)CN3CCc4c(ccc(OCc5cnco5)c4Cl)C3)ccn2)C1 [Compound 426, (S)—N-(3-(5-chloro-6-(oxazol-5-ylmethoxy)-3,4-dihydroisoquinolin-2(1H)-yl)-2-hydroxypropyl)-2-((1-propionylazetidin-3-yl)amino)isonicotinamide]",,C* (an IC50 ratio of less than 3 fold between the IC50 in the HAP1 MTAP-intact cell line and the HAP1 MTAP-deleted cell line),A (a Ki ratio greater than or equal to 10 fold between the Ki in the presence of SAM and the Ki in the presence of MTA)
500 to 5000,≥ 5000,50 to 500,≥ 10000,≥ 10000,,"Cc1ncoc1COc1ccc2c(c1C)CCN(C[C@@H](O)CNC(=O)c1cc(NC3CCCCC3)ncn1)C2 [Compound 368, 6-(cyclohexylamino)-N-[(2S)-2-hydroxy-3-{5-methyl-6-[(4-methyl-1,3-oxazol-5-yl)methoxy]-1,2,3,4-tetrahydroisoquinolin-2-yl}propyl]pyrimidine-4-carboxamide]",A (a Ki ratio greater than or equal to 10 fold between the Ki in the presence of SAM and the Ki in the presence of MTA),C* (an IC50 ratio of less than 3 fold between the IC50 in the HAP1 MTAP-intact cell line and the HAP1 MTAP-deleted cell line),
50 to 500,500 to 5000,50 to 500,≥ 10000,1000 to 10000,,"CCC(=O)N1CCN(c2nc(NC3COC3)cc(C(=O)NC[C@H](O)CN3CCc4cc(OCc5ocnc5C)ccc4C3)n2)CC1 [Compound 409, N-[(2S)-2-hydroxy-3-{6-[(4-methyl-1,3-oxazol-5-yl)methoxy]-1,2,3,4-tetrahydroisoquinolin-2-yl}propyl]-6-[(oxetan-3-yl)amino]-2-(4-propanoylpiperazin-1-yl)pyrimidine-4-carboxamide]",A (a Ki ratio greater than or equal to 10 fold between the Ki in the presence of SAM and the Ki in the presence of MTA),B* (an IC50 ratio greater than or equal to 3 fold but lower than 10 fold between the IC50 in the HAP1 MTAP-intact cell line and the HAP1 MTAP-deleted cell line),
50 to 500,500 to 5000,50 to 500,≥ 10000,1000 to 10000,,"O=C(NC[C@H](O)CN1CCc2cc(OCc3cnco3)ccc2C1)c1cc(NC2CCC2)nc(N2CCOCC2)c1 [Compound 292, (S)-2-(cyclobutylamino)-N-(2-hydroxy-3-(6-(oxazol-5-ylmethoxy)-3,4-dihydroisoquinolin-2(1H)-yl)propyl)-6-morpholinoisonicotinamide]",A (a Ki ratio greater than or equal to 10 fold between the Ki in the presence of SAM and the Ki in the presence of MTA),C* (an IC50 ratio of less than 3 fold between the IC50 in the HAP1 MTAP-intact cell line and the HAP1 MTAP-deleted cell line),
50 to 500,500 to 5000,50 to 500,1000 to 10000,< 1000,,"CCCN(C)c1nc(NC2COC2)cc(C(=O)NC[C@H](O)CN2CCc3cc(OCc4cnco4)ccc3C2)n1 [Compound 294, (S)—N-(2-hydroxy-3-(6-(oxazol-5-ylmethoxy)-3,4-dihydroisoquinolin-2(1H)-yl)propyl)-2-(methyl(propyl)amino)-6-(oxetan-3-ylamino)pyrimidine-4-carboxamide]",A (a Ki ratio greater than or equal to 10 fold between the Ki in the presence of SAM and the Ki in the presence of MTA),C* (an IC50 ratio of less than 3 fold between the IC50 in the HAP1 MTAP-intact cell line and the HAP1 MTAP-deleted cell line),
500 to 5000,≥ 5000,50 to 500,≥ 10000,≥ 10000,,"CC(=O)N1CCC(Nc2cc(C(=O)NC[C@H](O)CN3CCc4c(ccc(OCc5conc5C)c4C)C3)ncn2)CC1 [Compound 264, (S)-6-((1-acetylpiperidin-4-yl)amino)-N-(2-hydroxy-3-(5-methyl-6-((3-methylisoxazol-4-yl)methoxy)-3N-dihydroisoquinolin-2(1H)-yl)propyl)pyrimidine-4-carboxamide]",A (a Ki ratio greater than or equal to 10 fold between the Ki in the presence of SAM and the Ki in the presence of MTA),C* (an IC50 ratio of less than 3 fold between the IC50 in the HAP1 MTAP-intact cell line and the HAP1 MTAP-deleted cell line),
50 to 500,500 to 5000,50 to 500,1000 to 10000,1000 to 10000,,"O=C(NC[C@H](O)CN1CCc2cc(OCc3cnco3)ccc2C1)c1cc(NC2COC2)nc(N2CCN(C(=O)C3CC3)CC2)n1 [Compound 290, (S)-2-(4-(cyclopropanecarbonyl)piperazin-1-yl)-N-(2-hydroxy-3-(6-(oxazol-5-ylmethoxy)-3,4-dihydroisoquinolin-2(1H)-yl)propyl)-6-(oxetan-3-ylamino)pyrimidine-4-carboxamide]",A (a Ki ratio greater than or equal to 10 fold between the Ki in the presence of SAM and the Ki in the presence of MTA),B* (an IC50 ratio greater than or equal to 3 fold but lower than 10 fold between the IC50 in the HAP1 MTAP-intact cell line and the HAP1 MTAP-deleted cell line),
